Measurements from publication PMC7245249 (Biomedical Journal, 2020).
Where a name gives a salt, the structure may show the parent alone. Read-outs that look alike come from different tables or passages of the source.

How the values were obtained:
[1] = test system: Feline infectious peritonitis virus; format: cell-based; details: for EC50: read-out: EC50 (Visual assay), Feline infectious peritonitis virus; for Selectivity index, Feline infectious peritonitis virus: CC50/EC50 in Fcwf-4 cells
Human coronavirus OC43 = assay: microbe, parasite or virus in culture; format: cell-based, Human coronavirus OC43 (HCoV-OC43); details: for EC50: read-out: EC50 (IFA), Human coronavirus OC43; for Selectivity index, Human coronavirus OC43: CC50/EC50 in HCT-8 cells
in vitro [2] = details: human
in vitro [3] = details: cat (Felis catus)
[4] = Betacoronavirus 1, OC43, HCT-8, 72 h

| SMILES | EC50 [1] [µM] | EC50 (Human coronavirus OC43) [µM] | Selectivity index, Feline infectious peritonitis virus [1] | EC50 (Human coronavirus OC43; [4]) [µM] | Selectivity index, Human coronavirus OC43 (Human coronavirus OC43) | CC50 (in vitro [2]) [µM] | CC50 (in vitro [3]) [µM] |
| --- | --- | --- | --- | --- | --- | --- | --- |
| COc1ccc(C[C@H]2NC[C@H](O)[C@H]2OC(C)=O)cc1 [Anisomycin] | 0.023 | 0.2 ± 0.03 | – | – | – | – | – |
| CCCCCC[C@H]1C(=O)O[C@H](C)[C@H](NC(=O)c2cccc(NC=O)c2O)C(=O)O[C@@H](C)[C@@H]1OC(=O)CC(C)C [Antimycin A] | – | – | 1.10 | 0.062 ± 0.003 | >806 | > 50 | 81.9 ± 6.36 |
| O=C1C(O)=C([C@H]2CC[C@H](c3ccc(Cl)cc3)CC2)C(=O)c2ccccc21 [Atovaquone] | – | – | – | 6.78 ± 0.73 | >7.37 | > 50 | > 100 |
| CCN(CC)CCCC(C)Nc1ccnc2cc(Cl)ccc12 (stereo not drawn) [Chloroquine (diphosphate), Chloroquine] | 27.9 ± 0.72 | – | 1.35 | 27.4 ± 2.51 | >1.82 | > 50 | 37.5 |
| Cc1nc2c([nH]1)-c1ccccc1N(C(=O)c1ccc(NC(=O)c3ccccc3-c3ccccc3)cc1)CC2 [Conivaptan] | 16.9 ± 1.51 | – | – | 12.2 ± 4.2 | >4.10 | > 50 | > 100 |
| CC[C@H]1CN2CCc3cc(OC)c(OC)cc3[C@@H]2C[C@@H]1C[C@H]1NCCc2cc(OC)c(OC)cc21 [Emetine] | – | – | 3.00 | 0.21 ± 0.07 | >238 | > 50 | 0.03 |
| N#C[C@@]1(c2ccc3c(N)ncnn23)O[C@H](CO)[C@@H](O)[C@H]1O [GS-441524] | – | – | – | 6.77 ± 0.71 | >7.39 | > 50 | > 100 |
| Nc1ccn([C@@H]2O[C@H](CO)[C@@H](O)C2(F)F)c(=O)n1 [Gemcitabine (Hydrochloride), Gemcitabine] | – | – | – | 38.6 ± 11.4 | >1.30 | > 50 | > 100 |
| COC(=O)C[C@](O)(CCCC(C)(C)O)C(=O)O[C@@H]1C(OC)=C[C@]23CCCN2CCc2cc4c(cc2[C@H]13)OCO4 [Homoharringtonine] | – | – | 1.58 | 0.29 ± 0.03 | 26.7 | 7.61 ± 0.6 | 0.049 ± 0.002 |
| O=C(Nc1ccc([N+](=O)[O-])cc1Cl)c1cc(Cl)ccc1O [Niclosamide] | – | – | 0.80 | 1.36 ± 0.56 | >36.8 | > 50 | 0.23 |
| CC(=O)Oc1ccccc1C(=O)Nc1ncc([N+](=O)[O-])s1 [Nitazoxanide] | – | – | – | 28.6 ± 7.44 | >1.75 | > 50 | 4.69 |
| CC[C@H]1/C=C/C=C/C[C@@H](C)[C@H](O)[C@@](C)(O)C(=O)[C@@H](C)[C@H](O)[C@@H](C)C(=O)[C@@H](C)[C@H](O)[C@@H](C)/C=C/C(=O)O[C@@H]2[C@H](C)[C@H](CC1)O[C@]1(CC[C@H](C)[C@H](C[C@@H](C)O)O1)[C@H]2C [Oligomycin] | – | 5.22 ± 0.96 | 1.06 | 5.2 | >9.58 | > 50 | 18.8 |
| CC[C@@H](C(=O)[C@@H](C)[C@@H](O)[C@H](C)[C@@H]1O[C@@H]([C@@H](CC)C(=O)O)CC[C@@H]1C)[C@H]1O[C@]2(C=C[C@@H](O)[C@]3(CC[C@@](C)([C@H]4CC[C@](O)(CC)[C@H](C)O4)O3)O2)[C@H](C)C[C@@H]1C [Salinomycin] | – | – | 0.49 | 5.78 ± 2.17 | >8.65 | > 50 | 0.34 ± 0.1 |
| CCN(CC)CCOc1ccc2c(c1)C(=O)c1cc(OCCN(CC)CC)ccc1-2 [Tilorone (dihydrochloride), Tilorone] | – | – | 0.84 | 26 ± 2.24 | 1.38 | 35.9 ± 2.97 | 9.38 |
| CC(C)[C@@H]1NC(=O)[C@H](C)OC(=O)[C@@H](C(C)C)NC(=O)[C@@H](C(C)C)OC(=O)[C@H](C(C)C)NC(=O)[C@H](C)OC(=O)[C@@H](C(C)C)NC(=O)[C@@H](C(C)C)OC(=O)[C@H](C(C)C)NC(=O)[C@H](C)OC(=O)[C@@H](C(C)C)NC(=O)[C@@H](C(C)C)OC1=O [Valinomycin] | – | 0.41 ± 0.02 | 2.45 | 0.4 | >122 | > 50 | 3.98 ± 0.39 |
| CS(=O)(=O)c1ccc(C(=O)Nc2ccc(Cl)c(-c3ccccn3)c2)c(Cl)c1 [Vismodegib] | – | – | – | 47.6 ± 3.29 | >1.05 | > 50 | > 100 |
